# Measurements published in paper PMC11230938 (2024).
# Key:
# [1] = test system: OTC2 (DNA, aptamer) GACGACGCAATGTCCTTCGCAGGATCCGTTTACGGTGTCGTC; experiment: ITC; conditions: 50 mM NaCl, 2 mM MgCl2; 10 mM MES pH 6.0, 25 °C; 9 μM aptamer, 150 μM OTC
# [2] = test system: OTC22 (DNA, aptamer) GACGACAAAGCGTCTTACGTGCATACTTTTGTTGTCGTC; experiment: ITC; conditions: 50 mM NaCl, 2 mM MgCl2; 10 mM MES pH 6.0, 25 °C; 9 μM aptamer, 150 μM OTC
# [3] = test system: OTC43 (DNA, aptamer) GACGACTGGACCCTTCTGTGGTAGATTCTATCTAATGTCGTC; experiment: ITC; conditions: 50 mM NaCl, 2 mM MgCl2; 10 mM MES pH 6.0, 25 °C; 9 μM aptamer, 150 μM OTC
# [4] = test system: OTC2 (DNA, aptamer) GACGACGCAATGTCCTTCGCAGGATCCGTTTACGGTGTCGTC; experiment: intrinsic fluorescence titration of OTC; conditions: 50 mM NaCl, 2 mM MgCl2; 10 mM MES pH 6.0; 100 nM OTC; 12 min equilibration per addition (0.57 μM after 1 min)
# [5] = test system: OTC22 (DNA, aptamer) GACGACAAAGCGTCTTACGTGCATACTTTTGTTGTCGTC; experiment: intrinsic fluorescence titration of OTC; conditions: 50 mM NaCl, 2 mM MgCl2; 10 mM MES pH 6.0; 100 nM OTC; 1 min equilibration
# [6] = test system: OTC43 (DNA, aptamer) GACGACTGGACCCTTCTGTGGTAGATTCTATCTAATGTCGTC; experiment: intrinsic fluorescence titration of OTC; conditions: 50 mM NaCl, 2 mM MgCl2; 10 mM MES pH 6.0; 100 nM OTC; 1 min equilibration
# [7] = test system: OTC8 (DNA, aptamer) GACGACGGGCAAGATCTATTCTTCACGTTCACCTTTGTCGTC; experiment: intrinsic fluorescence titration of OTC; conditions: 50 mM NaCl, 2 mM MgCl2; 10 mM MES pH 6.0; 100 nM OTC; 1 min equilibration
# [8] = test system: OTC11 (DNA, aptamer) GACGACGCAGACATCTTGTGTGTCATAGCGCGCTACGTCGTC; experiment: intrinsic fluorescence titration of OTC; conditions: 50 mM NaCl, 2 mM MgCl2; 10 mM MES pH 6.0; 100 nM OTC; 1 min equilibration
# [9] = test system: OTC23 (DNA, aptamer) GACGACGTGCTATTGCCTCAGTCATTCTCTGAGTCGTCGTC; experiment: intrinsic fluorescence titration of OTC; conditions: 50 mM NaCl, 2 mM MgCl2; 10 mM MES pH 6.0; 100 nM OTC; 1 min equilibration
# [10] = test system: OTC26 (DNA, aptamer) GACGACATAGCTTGCTACCACTCGTCTCCGTAGTGGCAGTCGTC; experiment: intrinsic fluorescence titration of OTC; conditions: 50 mM NaCl, 2 mM MgCl2; 10 mM MES pH 6.0; 100 nM OTC; 1 min equilibration
# [11] = test system: OTC34 (DNA, aptamer) GACGACGCAGTCTGATTTCAGCCATAGTTTTACTGCGTCGTC; experiment: intrinsic fluorescence titration of OTC; conditions: 50 mM NaCl, 2 mM MgCl2; 10 mM MES pH 6.0; 100 nM OTC; 1 min equilibration
smiles,measurement,setting,value
CN(C)[C@@H]1C(=O)C(C(N)=O)=C(O)[C@@]2(O)C(=O)C3=C(O)c4c(O)cccc4[C@@](C)(O)[C@H]3[C@H](O)[C@@H]12,Kd,[1],0.062 ± 0.02 µM
same,Kd,[2],0.49 ± 0.11 µM
same,Kd,[3],1.6 ± 0.57 µM
same,Kd,[4],0.081 µM
same,Kd,[5],0.29 µM
same,Kd,[6],0.69 µM
same,Kd,[7],0.2 µM
same,Kd,[8],0.32 µM
same,Kd,[9],0.36 µM
same,Kd,[10],0.59 µM
same,Kd,[11],0.53 µM
